Bounds are passed on as bounds.

For the test, the target named is T1, Pancreatic triacylglycerol lipase (Sus scrofa, UniProt P00591).
T1 sequence (P00591 whole entry): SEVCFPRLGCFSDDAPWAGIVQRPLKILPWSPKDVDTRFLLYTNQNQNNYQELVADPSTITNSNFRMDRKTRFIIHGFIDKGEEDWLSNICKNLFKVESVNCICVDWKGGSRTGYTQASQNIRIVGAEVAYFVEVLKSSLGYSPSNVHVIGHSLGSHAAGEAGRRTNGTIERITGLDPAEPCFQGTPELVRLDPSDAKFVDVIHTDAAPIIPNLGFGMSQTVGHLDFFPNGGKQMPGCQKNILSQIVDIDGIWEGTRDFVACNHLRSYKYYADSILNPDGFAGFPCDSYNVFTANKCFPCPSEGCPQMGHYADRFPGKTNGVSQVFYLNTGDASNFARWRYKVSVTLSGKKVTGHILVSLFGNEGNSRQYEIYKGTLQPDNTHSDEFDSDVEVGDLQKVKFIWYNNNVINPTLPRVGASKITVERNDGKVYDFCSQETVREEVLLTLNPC
As to the kind of experiment: In Vitro Pancreatic Lipase Assay. The following applies: pH 7.4; 37 °C. On the procedure:
The mixedsolution that composed of […] of 0.1mM 4-MU oleate, […] of the above-mentioned buffer and […] of test samples was prepared before adding lipase. The enzymatic reaction was started by adding 0.05mL of 1 U/mL pancreatic lipase and incubation was carried out for 20 min at 37 °C. The amount of 4-methylumbelliferon released by the enzyme was monitored at an emission of 450 nm and excitation wavelength of 320 nm using a fluorescence spectrophotometer.

On to `O=C(/C=C/c1ccc(O)cc1)OCCc1ccc(O)cc1`, for which the IC50 (commonly the midpoint of a concentration-inhibition curve) amounted to 34.8 µM; the Ki (as a rule, the dissociation constant of the complex between target and ligand, obtained from inhibition or displacement) is 7.49 µM.
Regarding `Oc1cc(O)cc(CCc2ccccc2O)c1` [2',3,5-Trihydroxybibenzyl (2)], half-maximal inhibition (IC50) required 29.2 µM and affinity was put at a Ki of 6.45 µM.
For `COc1cc(O)c2c(c1)CCc1cc(O)ccc1-2` [2,5-Dihydroxy-7-methoxy-9,10-dihydrophenanthrene (14)], it took 25.1 µM to reach half-maximal inhibition (IC50) and the Ki was 4.96 µM.
`COc1cc(O)cc(CCc2ccccc2O)c1` [2-(3-hydroxy-5-methoxyphenethyl)phenol] registered an IC50 of 30.1 µM and a Ki of 6.28 µM.
In the case of `COc1c(O)cccc1CCc1cc(O)cc(O)c1` [3,3',5-Trihydroxy-2'-methoxybibenzyl (3)], the IC50 was 8.77 µM and the Ki amounted to 1.82 µM.
In the case of `COc1cc(CCc2ccccc2O)cc(O)c1OC` [3,4-Dimethoxy-2',5-dihydroxybibenzyl (9)], the IC50 is above 50 µM.
In the case of `COc1cc(CCc2ccccc2O)cc(OC)c1` [3,5-Dimethoxy-2'hydroxybibenzyl (7)], 44.1 µM corresponded to half-maximal inhibition (IC50) and affinity was put at a Ki of 9.28 µM.
For the compound `COc1cc2c(ccc3cc(O)cc(OC)c32)cc1O` [3,5-Dimethoxy-2,7-phenanthrenediol (11)], the IC50 was 12.7 µM and affinity was put at a Ki of 2.67 µM.
Compound `COc1cc(CCc2ccccc2)cc(OC)c1` [3,5-Dimethoxybibenzyl (8)] displayed an IC50 above 50 µM.
In turn, `COc1cc(O)cc2c1OCCc1ccccc1-2` [9,10-Dihydro-4-methoxy-dibenzoxepin-2-ol (16)] displayed an IC50 above 50 µM.
Regarding `Oc1cc(O)c2c(c1)-c1ccccc1CCO2` [9,10-Dihydro-dibenzoxepin-2,4-diol (15)], the IC50 was above 50 µM.
`O=C(/C=C/C=C/c1ccc(O)cc1)/C=C/c1ccc(O)cc1` [(1E,4E,6E)-1,7-bis(4-hydroxyphenyl)-1,4,6-heptatrien-3-one (19)] registered an IC50 of 16.4 µM and a Ki of 3.34 µM.
Compound `COc1cc(CC[C@@H](O)C[C@H](O)CCc2ccc(O)c(OC)c2)ccc1O` [(3R,5R)-1,7-bis(4-hydroxy-3-methoxyphenyl)-3,5-heptanediol] returned an IC50 above 50 µM.
Turning to `Oc1ccc(CC[C@@H](O)C[C@H](O)CCc2ccc(O)cc2)cc1` [(3R,5R)-3,5-dihydroxy-1,7-bis(4-hydroxyphenyl)-3,5-heptanediol (22)], the IC50 was above 50 µM.
With `O=C(/C=C/C=C/c1ccc(O)cc1)CCc1ccc(O)cc1` [(4E,6E)-1,7-bis(4-hydroxyphenyl)-4,6-heptadien-3-one (20)], the IC50 came to 9.12 µM and the Ki turned out to be 1.92 µM.
`COc1cc(/C=C/C=C/C(=O)CCc2ccc(O)cc2)ccc1O` [(4E,6E)-7-(4-hydroxy-3-methoxyphenyl)-1-(4-hydroxyphenyl)-4,6-heptadien-3-one (21)] had an IC50 of 11.1 µM and a Ki of 2.17 µM.
In turn, `COc1cc(OC)c2c(ccc3cc(OC)c(O)cc32)c1` [Batatasin I (12)] displayed an IC50 above 50 µM.
As to `COc1cc(O)cc(CCc2cccc(O)c2)c1` [Batatasin III (4)], the IC50 was determined as 32.3 µM and the affinity corresponds to a Ki of 6.79 µM.
As for `COc1cc(CCc2ccccc2O)cc(OC)c1OC` [Batatasin V (10)], the IC50 stood at 45.7 µM and the affinity corresponds to a Ki of 9.66 µM.
Compound `COc1cc(O)cc2c1-c1c(O)cccc1CC2` [Hircinol (13)] registered an IC50 of 40.6 µM and a Ki of 8.57 µM.
The compound `COc1cc(CCc2cc(O)cc(O)c2)ccc1O` [Tristin (1)] gave an IC50 of 13.5 µM and a Ki of 2.75 µM.
The compound `COc1cc(/C=C/C(=O)OCCc2ccc(O)cc2)ccc1O` [p-hydroxyphenethyl trans-ferulate] registered an IC50 above 50 µM.

(Values after BindingDB's records for doi:10.3109/14756366.2012.742517 (Seoul National University, 2014).)
